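The compound was tested at five concentrations on cells cultured in 96-well plates, with a 48-hour exposure period. The concentration for 50% growth inhibition is given as GI50. At the TGI there is no net growth.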 A value given as a limit tells only on which side of the number the result lay.

We go through five compounds from PubChem BioAssay (NCI).

Test systems include HCT-15 colon; SR leukemia; UO-31 renal; SK-MEL-5 melanoma; HL-60(TB) leukemia; RPMI-8226 leukemia; OVCAR-5 ovarian; DU-145 prostate; LOX IMVI melanoma; SK-MEL-28 melanoma.
Assay in all cases: DTP human tumour cell line panel, 48 h

On to `Cc1ncc(NC(=O)c2ccc(CN3CCN(C)CC3)c(C(F)(F)F)c2)cc1Nc1nccc(-c2cccnc2)n1`, for which the GI50 was 13.6 µM with HCT-15 colon; 2.9 µM in the experiment on SR leukemia; 11.7 µM in the experiment on UO-31 renal; 16.3 µM in the experiment with SK-MEL-5 melanoma; 8.57 µM with HL-60(TB) leukemia; 10 µM in the experiment on RPMI-8226 leukemia. Besides, the GI50 was 15.8 µM with OVCAR-5 ovarian, 16.7 µM in the experiment on DU-145 prostate, 1.64 µM in the experiment on LOX IMVI melanoma and 12.7 µM in the experiment on SK-MEL-28 melanoma. In addition, the TGI in the experiment on HCT-15 colon came out at 29.7 µM; in the experiment with SR leukemia, 47.8 µM; in the experiment on UO-31 renal it was 24 µM; in the experiment on SK-MEL-5 melanoma, 30.2 µM; in the experiment on HL-60(TB) leukemia, 32.3 µM; in the experiment on RPMI-8226 leukemia it was 49.7 µM. The TGI is 29.7 µM with OVCAR-5 ovarian, 30.4 µM in the experiment with DU-145 prostate, 3.18 µM in the experiment on LOX IMVI melanoma and 25.4 µM with SK-MEL-28 melanoma.
Take `C[C@H]1CCC/C=C/[C@@H]2C[C@H](N)C[C@H]2[C@H](O)/C=C/C(=O)O1`: the GI50 in the experiment on HCT-15 colon was more than 100 µM; in the experiment with SR leukemia it was 74 µM; in the experiment with UO-31 renal it was more than 100 µM; in the experiment on SK-MEL-5 melanoma, 77.1 µM; in the experiment on HL-60(TB) leukemia, 98.4 µM; in the experiment with RPMI-8226 leukemia, more than 100 µM. For the same compound, the GI50 in the experiment on OVCAR-5 ovarian, with DU-145 prostate, in the experiment with LOX IMVI melanoma and with SK-MEL-28 melanoma was more than 100 µM in each case. For the same compound, the TGI in the experiment on HCT-15 colon, in the experiment on SR leukemia, with UO-31 renal, in the experiment with SK-MEL-5 melanoma, with HL-60(TB) leukemia and with RPMI-8226 leukemia was more than 100 µM in each case. Further, the TGI in the experiment with OVCAR-5 ovarian, in the experiment on DU-145 prostate, with LOX IMVI melanoma and in the experiment with SK-MEL-28 melanoma was more than 100 µM in each case.
Regarding `CCCSc1cc(Cl)nc(N)n1`, the GI50 in the experiment on HCT-15 colon is more than 100 µM; in the experiment with SR leukemia, more than 100 µM; in the experiment on UO-31 renal it was 71.5 µM; with SK-MEL-5 melanoma it was more than 100 µM; in the experiment on HL-60(TB) leukemia, 6.48 µM; in the experiment with RPMI-8226 leukemia it was more than 100 µM. Moreover, the GI50 with OVCAR-5 ovarian, with DU-145 prostate, in the experiment on LOX IMVI melanoma and in the experiment with SK-MEL-28 melanoma was more than 100 µM each time. In addition, the TGI in the experiment with HCT-15 colon is more than 100 µM; with SR leukemia, more than 100 µM; in the experiment with UO-31 renal, more than 100 µM; in the experiment with SK-MEL-5 melanoma it was more than 100 µM; in the experiment with HL-60(TB) leukemia it was 50.5 µM; with RPMI-8226 leukemia it was more than 100 µM. The TGI in the experiment on OVCAR-5 ovarian, with DU-145 prostate, with LOX IMVI melanoma and in the experiment on SK-MEL-28 melanoma was more than 100 µM each time.
On to `Nc1ccc(SC23CC4CC(CC(C4)C2)C3)cc1`, for which the TGI with HCT-15 colon, in the experiment with SR leukemia, in the experiment with UO-31 renal, in the experiment on SK-MEL-5 melanoma, in the experiment with HL-60(TB) leukemia and with RPMI-8226 leukemia was more than 100 µM in each case. Besides, the TGI with OVCAR-5 ovarian, with DU-145 prostate, in the experiment on LOX IMVI melanoma and in the experiment on SK-MEL-28 melanoma was more than 100 µM throughout.
With `CC(=O)n1c(-c2ccc(Cl)cc2)nc2c(c1=O)C(c1ccc(Cl)cc1)c1sc3c(Cl)cccc3c1O2` (stereo not given), the GI50 is 0.418 µM in the experiment with HCT-15 colon; 0.436 µM in the experiment with SR leukemia; 0.551 µM in the experiment with UO-31 renal; 0.354 µM in the experiment on SK-MEL-5 melanoma; 0.289 µM in the experiment with HL-60(TB) leukemia; 0.504 µM in the experiment with RPMI-8226 leukemia. In addition, the GI50 is 1.72 µM in the experiment on OVCAR-5 ovarian, 0.499 µM in the experiment on DU-145 prostate, 0.59 µM in the experiment on LOX IMVI melanoma and 1.1 µM with SK-MEL-28 melanoma. In addition, the TGI with HCT-15 colon was 1.74 µM; in the experiment on SR leukemia it was 3.95 µM; in the experiment on UO-31 renal, 2.2 µM; with SK-MEL-5 melanoma, 1.32 µM; in the experiment with HL-60(TB) leukemia, 0.853 µM; in the experiment with RPMI-8226 leukemia it was 4.75 µM. Moreover, the TGI in the experiment on OVCAR-5 ovarian is 4.31 µM; in the experiment on DU-145 prostate, 2.38 µM; in the experiment with LOX IMVI melanoma it was 1.91 µM; in the experiment on SK-MEL-28 melanoma, 3.15 µM.

One may read the GI50 as the concentration that inhibits growth by half. As usually defined, the TGI is the concentration at which net growth stops.
